These results are taken from ChEMBL document CHEMBL3436045 (Sci Rep, 2013).

The first experiment concerns the target T1, Voltage-gated L-type calcium channel (Homo sapiens, UniProt Q13936+Q13698+Q01668+O60840). As to the kind of experiment: (§1) Inhibition of Cav1.2 current measured using QPatch automatic path clamp system in CHO cells expressing Cav1.2, beta-2 and alpha-2/delta-1 subunits. In kind it is functional, cell-based, Cricetulus griseus. Further details: ca sol conc 1.8 mM, temp Ambient. For orientation: Patch clamp records ionic current or voltage across a cell membrane.
`C[C@@H]1CN(c2c(F)c(N)c3c(=O)c(C(=O)O)cn(C4CC4)c3c2F)C[C@H](C)N1` [SPARFLOXACIN]: the IC50 worked out at 88.8 µM.

For `CC(C)N(CCC(C(N)=O)(c1ccccc1)c1ccccn1)C(C)C` (stereo not given) [DISOPYRAMIDE], the IC50 came to 1036.7 µM.

In the case of `O=C1NC(=O)C(c2ccccc2)(c2ccccc2)N1` [PHENYTOIN], the IC50 amounted to 21.9 µM.

`O=C1NCCN1CCN1CCC(c2cn(-c3ccc(F)cc3)c3ccc(Cl)cc23)CC1` [SERTINDOLE]: the IC50 was determined as 6.3 µM.

Regarding `COc1cc(N)c(Cl)cc1C(=O)NC1CCN(CCCOc2ccc(F)cc2)CC1OC` (stereo not given) [CISAPRIDE], the IC50 stood at 11.8 µM.

`CCN(CC)CCNC(=O)c1c(C)[nH]c(/C=C2\C(=O)Nc3ccc(F)cc32)c1C` [SUNITINIB]: the IC50 came to 33.4 µM.

With `Cc1cn([C@@H]2C[C@@H](O)[C@H](CO)O2)c(=O)[nH]c1=O` [TELBIVUDINE], the IC50 is 713.9 µM.

For `CCN1CCN(C(=O)N[C@@H](C(=O)N[C@@H]2C(=O)N3[C@@H]2SC(C)(C)[C@@H]3C(=O)O)c2ccccc2)C(=O)C1=O` [PIPERACILLIN], the 50% inhibitory concentration (IC50) came out at 1226 µM.

Consider `N[C@@H](CC(=O)N1CCn2c(nnc2C(F)(F)F)C1)Cc1cc(F)c(F)cc1F` [SITAGLIPTIN], for which the IC50 came to 147.1 µM.

For `CC(CC(c1ccccc1)c1ccccc1)NC(C)(C)C` (stereo not given) [TERODILINE], the IC50 stood at 4.8 µM.

As to `CO/N=C(\C(=O)N[C@@H]1C(=O)N2C(C(=O)O)=C(CSc3nc(=O)c(O)nn3C)CS[C@H]12)c1csc(N)n1` [CEFTRIAXONE], the IC50 is 153.8 µM.

With `Cc1nc2n(c(=O)c1CCN1CCC(c3noc4cc(F)ccc34)CC1)CCCC2O` (stereo not given) [PALIPERIDONE], the IC50 was found to be 193.9 µM.

Turning to `CC(=O)NC[C@H]1CN(c2ccc(N3CCOCC3)c(F)c2)C(=O)O1` [LINEZOLID], the IC50 came to 105.4 µM.

As to `NC(=O)c1ncn([C@@H]2O[C@H](CO)[C@@H](O)[C@H]2O)n1` [RIBAVIRIN], the IC50 was determined as 622.5 µM.

Take `Fc1ccc([C@@H]2CCNC[C@H]2COc2ccc3c(c2)OCO3)cc1` [PAROXETINE]: the IC50 was found to be 3.9 µM.

Turning to `O=C(CCCN1CC=C(n2c(=O)[nH]c3ccccc32)CC1)c1ccc(F)cc1` [DROPERIDOL], the IC50 was determined as 7.6 µM.

Take `O=C1CCc2cc(OCCCCc3nnnn3C3CCCCC3)ccc2N1` [CILOSTAZOL]: the IC50 stood at 91.2 µM.

In the case of `CCCCCCCN(CC)CCCC(O)c1ccc(NS(C)(=O)=O)cc1` (stereo not given) [IBUTILIDE], the IC50 worked out at 62.5 µM.

For the next experiment, the target named is T1, Voltage-gated L-type calcium channel. The description is as §1. The class given is functional, cell-based, Cricetulus griseus.
Turning to `C[C@@H](c1ncncc1F)[C@](O)(Cn1cncn1)c1ccc(F)cc1F` [VORICONAZOLE], the half-inhibitory concentration (IC50) came to 414.2 µM.

For another experiment the target is unchanged. As to the kind of experiment: Inhibition of Cav1.2 current measured using PatchXpress automatic path clamp system in CHO cells expressing Cav1.2, beta-2 and alpha-2/delta-1 subunits. In kind it is functional, cell-based, Cricetulus griseus. Also noted: ca sol conc 1.8 mM, temp Ambient.
Take `CCCC(C)C1(CC)C(=O)NC(=O)NC1=O` (stereo not given) [PENTOBARBITAL]: the IC50 was determined as 299 µM.

One may read the IC50 as the concentration at which inhibition is half-maximal.
